Assays:
Type in all cases: toxicity, cell-based
HEK-293T = experiment: Incucyte cell viability with HEK293T; conditions: human, 10 µM, compound concentration 10 uM
U2OS = experiment: Incucyte cell viability with U2OS; conditions: human, 10 µM, compound concentration 10 uM
Fibroblast = experiment: Incucyte cell viability with human fibroblast; conditions: 10 µM, compound concentration 10 uM
Further: unitless GR value; below 1 slowed growth and below 0 cell loss.

Compound	Growth Rate (HEK-293T; 6 h, replicate number 2)	Growth Rate (HEK-293T; 12 h, replicate number 1)	Growth Rate (HEK-293T; 12 h, replicate number 2)	Growth Rate (HEK-293T; 18 h, replicate number 1)	Growth Rate (HEK-293T; 18 h, replicate number 2)	Growth Rate (HEK-293T; 24 h, replicate number 1)	Growth Rate (HEK-293T; 24 h, replicate number 2)	Growth Rate (U2OS; 0 h, replicate number 1)	Growth Rate (U2OS; 0 h, replicate number 2)	Growth Rate (U2OS; 12 h, replicate number 1)	Growth Rate (U2OS; 12 h, replicate number 2)	Growth Rate (U2OS; 18 h, replicate number 1)	Growth Rate (U2OS; 18 h, replicate number 2)	Growth Rate (U2OS; 24 h, replicate number 2)	Growth Rate (Fibroblast; 6 h, replicate number 2)	Growth Rate (Fibroblast; 12 h, replicate number 2)	Growth Rate (Fibroblast; 18 h, replicate number 2)	Growth Rate (Fibroblast; 24 h, replicate number 1)	Growth Rate (Fibroblast; 24 h, replicate number 2)	Growth Rate (HEK-293T; 6 h, replicate number 1)	further results
Cc1cc([N+](=O)[O-])c(NS(=O)(=O)c2cccc(C(=O)O)c2)cc1-c1cccnc1 [ALOFANIB]	0.57	0.91	0.68	0.65	0.78	0.75	0.79	-0.35	0.06	0.39	0.55	0.93	0.64	0.6	0.26	0.74	0.99	0.8	0.92	–	Growth Rate (HEK-293T; 0 h, replicate number 1): -0.38; Growth Rate (U2OS; 6 h, replicate number 1): 0.68; Growth Rate (U2OS; 6 h, replicate number 2): 0.28; Growth Rate (Fibroblast; 0 h, replicate number 2): 0.25; Growth Rate (Fibroblast; 6 h, replicate number 1): 0.27; Growth Rate (Fibroblast; 12 h, replicate number 1): 0.56; Growth Rate (Fibroblast; 18 h, replicate number 1): 0.5
O=C1N=C(NCc2cccs2)S/C1=C\c1ccc2ncccc2c1	–	–	–	–	–	–	–	0.58	-0.23	-0.76	0.57	0.78	0.67	0.78	–	–	–	–	–	–	Growth Rate (HEK-293T; 0 h, replicate number 1): -0.36; Growth Rate (HEK-293T; 0 h, replicate number 2): -0.64; Growth Rate (U2OS; 24 h, replicate number 1): 0.64; Growth Rate (Fibroblast; 0 h, replicate number 1): -0.1; Growth Rate (Fibroblast; 6 h, replicate number 1): 0.04
CC[C@@H]1C(=O)N(C)c2cnc(Nc3ccc(C(=O)NC4CCN(C)CC4)cc3OC)nc2N1C1CCCC1 [BI-2536]	0.73	-0.09	0.08	-0.18	–	-0.17	-0.18	–	0.33	0.69	0.59	0.34	0.42	0.3	–	–	0.83	0.41	0.46	0.45	Growth Rate (U2OS; 24 h, replicate number 1): 0.08; Growth Rate (Fibroblast; 0 h, replicate number 2): -0.99; Growth Rate (Fibroblast; 18 h, replicate number 1): 0.76
CN1CCN(C(=O)c2ccc(N(C)c3ncc(C(F)(F)F)c(N[C@@H]4CCC[C@@H]4C(N)=O)n3)cc2)CC1.Cl	0.56	0.91	–	–	–	–	–	–	–	–	–	–	–	1	-0.99	-0.02	0.35	–	0.9	1	Growth Rate (HEK-293T; 0 h, replicate number 2): 0.56
CCOc1ccccc1C(=O)NCC1(N2CCN(CC)CC2)CCCCC1	-0.02	-0.11	0.31	0.24	0.44	0.44	0.46	-0.19	-0.99	–	0.88	–	0.86	0.94	-0.9	0.93	–	0.45	0.83	0.23	Growth Rate (HEK-293T; 0 h, replicate number 1): 0.98; Growth Rate (U2OS; 6 h, replicate number 2): 0.56; Growth Rate (Fibroblast; 0 h, replicate number 1): -0.95; Growth Rate (Fibroblast; 0 h, replicate number 2): -0.98; Growth Rate (Fibroblast; 18 h, replicate number 1): -0.25
C[C@@H](CN1CCC(Cc2ccccc2)CC1)[C@@H](O)c1ccc(O)cc1	0.36	–	0.86	–	–	–	–	-0.54	-0.81	0.85	–	0.98	0.99	–	-0.45	0.48	0.53	0.78	0.68	–	Growth Rate (HEK-293T; 0 h, replicate number 2): 0.98; Growth Rate (U2OS; 6 h, replicate number 1): 0.07; Growth Rate (U2OS; 24 h, replicate number 1): 0.96; Growth Rate (Fibroblast; 6 h, replicate number 1): -0.49; Growth Rate (Fibroblast; 12 h, replicate number 1): -0.59
FC(F)(F)c1ccccc1-c1cc(C(F)(F)F)c2[nH]c(C3=NOC4(CCCCC4)C3)nc2c1	-0.15	-0.3	-0.05	-0.22	-0.02	-0.23	0	–	-0.12	–	0.98	–	–	0.94	-0.79	-0.41	-0.08	–	-0.03	0.12	–
Cc1c(NC(=O)c2ccc(C(C)(C)C)cc2)cccc1-c1cn(C)c(=O)c(Nc2ccc(C(=O)N3CCOCC3)cc2)n1	–	0.38	0.51	0.53	0.35	0.63	0.48	–	–	–	–	–	–	–	-0.1	0.63	0.72	–	–	0.48	Growth Rate (U2OS; 24 h, replicate number 1): 0.97
N#CN1CC[C@@H](C(=O)Nc2nc3c(s2)CN(C(=O)CN=[N+]=[N-])CC3)C1 [JYQ88]	0.71	0.77	0.7	1	0.77	0.96	0.85	-1	–	0.95	–	–	–	–	0.78	0.49	0.75	1	0.77	0.69	Growth Rate (HEK-293T; 0 h, replicate number 1): 0.97; Growth Rate (Fibroblast; 0 h, replicate number 1): -1; Growth Rate (Fibroblast; 12 h, replicate number 1): 0.78
CN(C)c1ccc(-c2cc3ncccc3c(OCCCCO)n2)cc1.O=C(O)C(F)(F)F	–	–	–	–	–	–	0.87	-1	–	0.85	0.55	0.66	0.67	0.64	0.29	0.37	0.6	–	0.65	–	Growth Rate (HEK-293T; 0 h, replicate number 1): -0.94; Growth Rate (HEK-293T; 0 h, replicate number 2): -0.26; Growth Rate (U2OS; 6 h, replicate number 2): -0.83; Growth Rate (U2OS; 24 h, replicate number 1): 0.91; Growth Rate (Fibroblast; 0 h, replicate number 2): -0.45
CCN1C(=CC(C)=O)Sc2ccc(OC)cc21	0.47	0.47	0.28	0.25	0.43	0.2	0.46	–	–	–	0.9	–	–	–	0.95	–	–	–	–	0.07	Growth Rate (HEK-293T; 0 h, replicate number 1): 0.95; Growth Rate (HEK-293T; 0 h, replicate number 2): 0.69; Growth Rate (Fibroblast; 0 h, replicate number 1): 0.98; Growth Rate (Fibroblast; 0 h, replicate number 2): 0.16
C=CC(=O)Nc1cccc(C(=O)Nc2ccc(NC(=O)c3cccc(-c4ccn[nH]4)n3)cc2)c1	0.82	–	0.37	0.81	0.59	–	0.55	-0.99	-0.56	–	–	–	–	0.92	–	–	–	–	–	0.54	Growth Rate (HEK-293T; 0 h, replicate number 2): 0.5; Growth Rate (Fibroblast; 0 h, replicate number 1): 0; Growth Rate (Fibroblast; 6 h, replicate number 1): -0.7
CCOC(=O)c1cncn1[C@H](C)c1ccccc1 [ETOMIDATE]	–	–	–	–	–	–	–	0.35	-0.28	0.97	–	0.9	0.87	–	–	–	–	-0.16	–	0.68	Growth Rate (U2OS; 6 h, replicate number 2): 0.83; Growth Rate (U2OS; 24 h, replicate number 1): 0.98; Growth Rate (Fibroblast; 0 h, replicate number 1): 0.28; Growth Rate (Fibroblast; 0 h, replicate number 2): 0.93; Growth Rate (Fibroblast; 18 h, replicate number 1): 0.21
CN1CCCN(C(=O)c2cccc(-c3ccc(/C=C4/C(=O)Nc5ccc(Cl)cc54)o3)c2)CC1	-0.67	-0.6	-0.63	-0.51	-0.49	-0.45	-0.47	–	-0.78	-0.7	-0.54	-0.53	-0.44	-0.42	-0.94	-0.82	-0.72	-0.67	-0.63	-0.69	Growth Rate (HEK-293T; 0 h, replicate number 2): -1; Growth Rate (U2OS; 6 h, replicate number 1): -0.67; Growth Rate (U2OS; 6 h, replicate number 2): -0.6; Growth Rate (U2OS; 24 h, replicate number 1): -0.48; Growth Rate (Fibroblast; 6 h, replicate number 1): -0.99; Growth Rate (Fibroblast; 12 h, replicate number 1): -0.83; Growth Rate (Fibroblast; 18 h, replicate number 1): -0.74
CS(=O)(=O)O.C[C@H](NC(=O)c1cnc2n1[C@](C)(Cc1ccc(C#N)cc1)C(=O)N2c1cc(Cl)c(F)c(Cl)c1)C(=O)NC1(c2ccccn2)CC1	–	–	–	–	–	–	–	–	-0.46	0.92	0.49	0.98	0.81	–	0.85	0.94	0.61	0.73	0.87	–	Growth Rate (HEK-293T; 0 h, replicate number 1): 0.44; Growth Rate (HEK-293T; 0 h, replicate number 2): 0.94; Growth Rate (U2OS; 6 h, replicate number 1): 0.8; Growth Rate (U2OS; 6 h, replicate number 2): 0.54; Growth Rate (U2OS; 24 h, replicate number 1): 0.82; Growth Rate (Fibroblast; 0 h, replicate number 1): -1; Growth Rate (Fibroblast; 6 h, replicate number 1): 0.73; Growth Rate (Fibroblast; 18 h, replicate number 1): 0.98

— ChEMBL document CHEMBL5303304, “EUbOPEN Chemogenomics Library - IncuCyte” (2023)
